# Measured values taken from patent publication US20100298141A1, “SUBSTITUTED PYRIDINE N-OXIDE HERBICIDES” (E. I. DU PONT DE NEMOURS AND COMPANY, priority 2007, published 2010).
# What was measured:
# [1] = system: woolly cupgrass; test: Test C pre-/postemergence test; type: in vivo, Eriochloa villosa
# In short: (§1)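 Compounds in a non-phytotoxic solvent with surfactant applied preemergence to seeded pots and, at the same time, postemergence to plants 2–18 cm tall (1- to 4-leaf stage). Paddy tests: pots flooded to 3 cm, compound applied into the water, depth held throughout.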
# [2] = system: morningglory; test: Test A pre-/postemergence greenhouse test; type: in vivo, Ipomoea spp.; conditions: for Plant response rating, Morningglory: 0 to 100 scale where 0 is no effect and 100 is complete control; for Morningglory plant response rating: 0 to 100 scale
# In short: (§2)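 Seeds sown in a loam soil–sand blend got a preemergence directed soil spray of compound in a non-phytotoxic solvent mixture containing surfactant. Postemergence sprays of the same formulation went at the same time onto plants 2–10 cm tall at the one- to two-leaf stage. Injury was scored visually against untreated controls after about ten days in the greenhouse.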
# [3] = system: soybean; test: Test C pre-/postemergence test; type: in vivo, Glycine max
# In short: as §1
# [4] = system: Goosegrass; test: Test C pre-/postemergence test; type: in vivo, Eleusin indica
# In short: as §1
# [5] = system: wheat; test: Test A pre-/postemergence greenhouse test; type: in vivo, Triticum aestivum; conditions: for Plant response rating, Wheat: 0 to 100 scale where 0 is no effect and 100 is complete control; for Wheat plant response rating: 0 to 100 scale
# In short: as §2
# [6] = system: umbrella sedge; test: Test C flooded paddy test; type: in vivo, Cyperus difformis; conditions: Flood
# In short: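 Pots were flooded to 3 cm above the soil surface at treatment, compound applied directly to the paddy water, and that depth held throughout. Plants were kept in a greenhouse for 13 to 15 days, then visually rated against untreated controls.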
# [7] = system: yellow nutsedge; test: Test C pre-/postemergence test; type: in vivo, Cyperus esculentus
# In short: as §1
# [8] = system: crabgrass; test: Test A pre-/postemergence greenhouse test; type: in vivo, Digitaria sanguinalis; conditions: for Plant response rating, Crabgrass, Large: 0 to 100 scale where 0 is no effect and 100 is complete control; for Crabgrass, Large plant response rating: 0 to 100 scale
# In short: as §2
# [9] = system: downy brome; test: Test C pre-/postemergence test; type: in vivo, Bromus tectorum
# In short: as §1
# [10] = system: morningglory; test: Test C pre-/postemergence test; type: in vivo, Ipomoea coccinea
# In short: as §1
# [11] = system: johnsongrass; test: Test C pre-/postemergence test; type: in vivo, Sorghum halepense
# In short: as §1
# [12] = system: giant foxtail; test: Test C pre-/postemergence test; type: in vivo, Setaria faberii
# In short: as §1
# [13] = system: common ragweed; test: Test C pre-/postemergence test; type: in vivo, Ambrosia elation
# In short: as §1
# [14] = system: cocklebur; test: Test C pre-/postemergence test; type: in vivo, Xanthium strumarium; conditions: for Cocklebur plant response rating: preemergence, scale 0 (no effect) to 100 (complete control)
# In short: as §1
# [15] = system: lambsquarters; test: Test C pre-/postemergence test; type: in vivo, Chenopodium album
# In short: as §1
# [16] = system: corn; test: Test C pre-/postemergence test; type: in vivo, Zea mays
# In short: as §1
# [17] = system: giant foxtail; test: Test A pre-/postemergence greenhouse test; type: in vivo, Setaria faberi; conditions: for Plant response rating, Foxtail, Giant: 0 to 100 scale where 0 is no effect and 100 is complete control; for Foxtail, Giant plant response rating: 0 to 100 scale
# In short: as §2
# [18] = 62 g ai/ha, Preemergence, scale 0 to 100
# [19] = 125 g ai/ha, preemergence, scale 0 (no effect) to 100 (complete control)
# [20] = Postemergence, 62 g ai/ha, scale 0 to 100, 0 no effect, 100 complete control
# [21] = Postemergence, 125 g ai/ha, scale 0 to 100, 0 no effect, 100 complete control
# [22] = Postemergence, 250 g ai/ha, scale 0 to 100, 0 no effect, 100 complete control
# [23] = Preemergence, 31 g ai/ha, scale 0 to 100 (0 no effect, 100 complete control)
# [24] = preemergence, 250 g ai/ha, scale 0 (no effect) to 100 (complete control)
# [25] = Postemergence, 500 g ai/ha, 0 is no effect, 100 is complete control
# [26] = Preemergence, 125 g ai/ha, 0 no effect, 100 complete control
smiles,measurement,setting,value
Cn1nc(C(F)(F)F)c(C[S+]([O-])c2ccc(Cl)c[n+]2[O-])c1OCC(F)(F)F (racemic) [Compound 62],"Cupgrass, Woolly plant response rating",[1]; [18],70
same,"Cupgrass, Woolly plant response rating",[1]; [19],100
same,"Plant response rating (0 to 100), Cupgrass, Woolly","[1]; Postemergence, 31 g ai/ha",0
same,"Plant response rating, Cupgrass, Woolly",[1]; [20],0
same,"Plant response rating, Cupgrass, Woolly",[1]; [21],0
same,"Plant response rating, Cupgrass, Woolly",[1]; [22],50
same,"Plant response rating, Cupgrass, Woolly",[1]; [23],0
same,"Cupgrass, Woolly plant response rating",[1]; [24],100
same,"Plant response rating, Morningglory","[2]; Postemergence, 125 g ai/ha",90
same,Morningglory plant response rating,[2]; [25],100
same,Morningglory plant response rating,[2]; [26],90
same,"Plant response rating, Morningglory","[2]; Preemergence, 500 g ai/ha",100
same,Soybean plant response rating,[3]; [18],100
same,Soybean plant response rating,[3]; [19],100
same,"Plant response rating (0 to 100), Soybean","[3]; Postemergence, 31 g ai/ha",30
same,"Plant response rating (0 to 100), Soybean","[3]; Postemergence, 62 g ai/ha",50
same,"Plant response rating, Soybean",[3]; [21],60
same,"Plant response rating, Soybean",[3]; [23],70
same,Goosegrass plant response rating,[4]; [18],100
same,Goosegrass plant response rating,[4]; [19],100
same,"Plant response rating (0 to 100), Goosegrass","[4]; Postemergence, 31 g ai/ha",0
same,"Plant response rating, Goosegrass",[4]; [20],0
same,"Plant response rating, Goosegrass",[4]; [21],10
same,"Plant response rating, Goosegrass",[4]; [22],50
same,"Plant response rating, Goosegrass",[4]; [23],100
same,Goosegrass plant response rating,[4]; [24],100
same,"Plant response rating, Wheat","[5]; Postemergence, 125 g ai/ha",60
same,Wheat plant response rating,[5]; [25],60
same,Wheat plant response rating,[5]; [26],70
same,"Plant response rating, Wheat","[5]; Preemergence, 500 g ai/ha",100
same,"Plant response rating, Sedge, Umbrella","[6]; 62 g ai/ha, scale 0 to 100 (0 no effect, 100 complete control)",0
same,"Plant response rating, Sedge, Umbrella","[6]; 250 g ai/ha, scale 0 to 100, 0 no effect, 100 complete control, 13 to 15 days",100
same,"Nutsedge, Yellow plant response rating",[7]; [18],40
same,"Nutsedge, Yellow plant response rating",[7]; [19],70
same,"Plant response rating (0 to 100), Nutsedge, Yellow","[7]; Postemergence, 31 g ai/ha",0
same,"Plant response rating, Nutsedge, Yellow",[7]; [20],0
same,"Plant response rating, Nutsedge, Yellow",[7]; [21],0
same,"Plant response rating, Nutsedge, Yellow",[7]; [22],0
same,"Plant response rating, Nutsedge, Yellow",[7]; [23],0
same,"Nutsedge, Yellow plant response rating",[7]; [24],100
same,"Plant response rating, Crabgrass, Large","[8]; Postemergence, 125 g ai/ha",80
same,"Crabgrass, Large plant response rating",[8]; [25],90
same,"Crabgrass, Large plant response rating",[8]; [26],100
same,"Plant response rating, Crabgrass, Large","[8]; Preemergence, 500 g ai/ha",100
same,"Bromegrass, Downy plant response rating",[9]; [18],50
same,"Bromegrass, Downy plant response rating",[9]; [19],70
same,"Plant response rating (0 to 100), Bromegrass, Downy","[9]; Postemergence, 31 g ai/ha",0
same,"Plant response rating, Bromegrass, Downy",[9]; [20],0
same,"Plant response rating, Bromegrass, Downy",[9]; [21],45
same,"Plant response rating, Bromegrass, Downy",[9]; [22],60
same,"Plant response rating, Bromegrass, Downy",[9]; [23],50
same,"Bromegrass, Downy plant response rating",[9]; [24],85
same,Morningglory plant response rating,[10]; [18],90
same,Morningglory plant response rating,[10]; [19],100
same,"Plant response rating (0 to 100), Morningglory","[10]; Postemergence, 31 g ai/ha",0
same,"Plant response rating, Morningglory",[10]; [20],0
same,"Plant response rating, Morningglory",[10]; [21],0
same,"Plant response rating, Morningglory",[10]; [22],30
same,"Plant response rating, Morningglory",[10]; [23],50
same,Morningglory plant response rating,[10]; [24],100
same,Johnsongrass plant response rating,[11]; [18],100
same,Johnsongrass plant response rating,[11]; [19],100
same,"Plant response rating (0 to 100), Johnsongrass","[11]; Postemergence, 31 g ai/ha",0
same,"Plant response rating, Johnsongrass",[11]; [20],0
same,"Plant response rating, Johnsongrass",[11]; [21],0
same,"Plant response rating, Johnsongrass",[11]; [22],0
same,"Plant response rating, Johnsongrass",[11]; [23],70
same,Johnsongrass plant response rating,[11]; [24],100
same,"Foxtail, Giant plant response rating",[12]; [18],100
same,"Foxtail, Giant plant response rating",[12]; [19],100
same,"Plant response rating (0 to 100), Foxtail, Giant","[12]; Postemergence, 31 g ai/ha",0
same,"Plant response rating, Foxtail, Giant",[12]; [20],0
same,"Plant response rating, Foxtail, Giant",[12]; [21],40
same,"Plant response rating, Foxtail, Giant",[12]; [22],70
same,"Plant response rating, Foxtail, Giant",[12]; [23],70
same,"Foxtail, Giant plant response rating",[12]; [24],100
same,Ragweed plant response rating,[13]; [18],100
same,Ragweed plant response rating,[13]; [19],100
same,"Plant response rating (0 to 100), Ragweed","[13]; Postemergence, 31 g ai/ha",0
same,"Plant response rating (0 to 100), Ragweed","[13]; Postemergence, 62 g ai/ha",0
same,"Plant response rating, Ragweed",[13]; [21],0
same,"Plant response rating, Ragweed",[13]; [22],0
same,"Plant response rating, Ragweed",[13]; [23],100
same,Ragweed plant response rating,[13]; [24],100
same,Cocklebur plant response rating,[14]; 125 g ai/ha,30
same,"Plant response rating (0 to 100), Cocklebur","[14]; Postemergence, 31 g ai/ha",0
same,"Plant response rating, Cocklebur",[14]; [20],0
same,"Plant response rating, Cocklebur",[14]; [21],0
same,"Plant response rating, Cocklebur",[14]; [22],0
same,"Plant response rating, Cocklebur",[14]; [23],0
same,Cocklebur plant response rating,[14]; 250 g ai/ha,60
same,Lambsquarters plant response rating,[15]; [18],100
same,Lambsquarters plant response rating,[15]; [19],100
same,"Plant response rating (0 to 100), Lambsquarters","[15]; Postemergence, 31 g ai/ha",0
same,"Plant response rating, Lambsquarters",[15]; [20],0
same,"Plant response rating, Lambsquarters",[15]; [21],0
same,"Plant response rating, Lambsquarters",[15]; [22],0
same,"Plant response rating, Lambsquarters",[15]; [23],100
same,Lambsquarters plant response rating,[15]; [24],100
same,Corn plant response rating,[16]; [18],98
same,Corn plant response rating,[16]; [19],100
same,"Plant response rating (0 to 100), Corn","[16]; Postemergence, 31 g ai/ha",0
same,"Plant response rating, Corn",[16]; [20],0
same,"Plant response rating, Corn",[16]; [21],0
same,"Plant response rating, Corn",[16]; [22],10
same,"Plant response rating, Corn",[16]; [23],80
same,Corn plant response rating,[16]; [24],100
same,"Plant response rating, Foxtail, Giant","[17]; Postemergence, 125 g ai/ha",90
same,"Foxtail, Giant plant response rating",[17]; [25],90
same,"Foxtail, Giant plant response rating",[17]; [26],100
same,"Plant response rating, Foxtail, Giant","[17]; Preemergence, 500 g ai/ha",100
